From US7011834B1, “Immunomodulating dimers” (The Board of Trustees of Leland Stanford Junior University, priority 1987, dated 2006)
Each block holds one substance with its values, some of them ahead of it. Where no end group is shown, it is not given here.

Experiments:
[1] = tested on: CD8+CTL line specific for HLA-A2; assay: Cytotoxicity assay: inhibition of lysis by established CTL, 51Cr-labeled JY targets; format: cell-based, human; conditions: for inhibition of lysis by established CTL: HLA-A2 specific CD8+CTL, JY targets, peptides 100 μg/ml, 4 h assay
Experimental: Cytotoxicity Assay. CTL assays were performed as described using ^51Cr-labeled EBV transformed B cells expressing the appropriate HLA allele as targets [[…] et al., J. Immunol. (1982) 129:2001]. In the present protocol, a CD8+CTL line specific for HLA-A2 was tested in the presence of various peptides for lysis of ^51Cr-labeled JY targets. Peptides were added to a final concentration of 100 μg/ml at the initiation of the 4 h assay. Each determination was the mean of triplicate wells. […] In these determinations, inhibition of cytolysis, as described above, employed the CTL cell line AJY, a long term CD8+CTL line specific for HLA-A2 and the target cell was the B-lymphoblastoid cell line JY (HLA-A2, B7). The cytotoxicity assay was performed as described by Clayberger et al., J. Exp. Med. (1984) 162:1709-1714; and Reiss et al., Proc Natl Acad Sci USA (1980) 77:5432-5436. The peptides were preincubated for 30 min with 1-3×10^3 CTLs before addition of 10^3 51Cr-labeled B-lymphoblastoid target cells. The results are reported for varying concentrations of the peptide with varying ratios of the two cell lines.

[2] = Half-life of peptide in rats; conditions: rat, in vivo, preliminary studies
Experimental: Therefore, we tested whether splenocytes obtained from rats treated with the peptides in vivo could differentiate into CTL ex vivo. In preliminary studies, the half-life of the B7.75-84 peptide was determined to be 2–3 hours in rats.

[3] = tested on: Lew specific CTL precursors in splenocytes; assay: Limiting dilution assay for CTL precursors in splenocytes after in vivo peptide; design: species or system rat; conditions: PVG rats; for [CTL precursor frequency]^−1: single iv 2 mg, Lew stimulators
Experimental: The effect of peptides on CTL precursor frequencies in splenocytes was tested as follows. Limiting dilution analysis was carried out essentially as described (Moeller et al. 1993, supra; Skinner and Marbrook. J. Exp. Med. (1976) 143:1562). Briefly, spleens were removed from naive animals or from animals that had received an allograft a minimum of 60 days earlier and then teased into a single cell suspension. Responder cells were plated from 1000 to 40,000 cells per well (24 replicates per concentration) into round bottom microliter wells in RPMI 1640 supplemented with 10% fetal bovine serum (Hyclone, Logan, Utah), 2 mM L-glutamine, 5×10^−5M β-mercaptoethanol, 100 U/ml penicillin, 100 μg/ml streptomycin, 20% supernatant from Concanavalin A activated rat spleen cells, and 50 μM α-methyl mannoside. Then, 5×10^5 irradiated (2000 rads) stimulator cells were added to each well and plates were incubated in a humidified CO2 incubator. After 5 days, aliquots were removed and tested for lysis of ^51Cr-labeled Concanavalin A activated blasts. Aliquots of supernatant were counted in a gamma counter and CTL precursor frequency determined by linear regression (Skinner and Marbrook. 1976, supra). Wells were considered positive if specific release was >10%.
PVG (RT1^c) or ACI […] rats were treated with a single intravenous injection of saline or 2 mg of A2.75-84, B7.75-84, B2702.75-84, or RT1^a.75-84 peptide. Their spleens were removed on different days after peptide treatment, cultured under limiting dilution conditions for 5 days with irradiated (2000R) splenocytes from Lewis rats; i.e., Lew (RT1^1) stimulator cells, and assayed for lysis of ^51Cr-labeled Lew blasts. CTL precursor frequency was determined by linear regression analysis.

Substance: B7.84–75/75–84: SEQ ID NO:27 (also NO:35); Table 1 sequence read from dashes: YGRLNRLSERRESLRNLRGY (listed as Homo sapiens)
- inhibition of lysis by established CTL [1]: did not inhibit CTL-mediated lysis at any concentration tested

Substance: B2702.70–84: SEQ ID NO:33, the 15-mer; Table 1 sequence read from dashes: KAQTDRENLRIALRY (listed as Homo sapiens)
- inhibition of lysis by established CTL [1]: comparably effective in inhibiting cytolysis to B2072.75-84

Substance: B2702.75–84T^80: SEQ ID NO:25; threonine replaces isoleucine at position 80: RENLRTALRY (listed as Homo sapiens)
- inhibition of lysis by established CTL [1]: did not inhibit lysis

Substance: REDLRIALRY (listed as Homo sapiens) [B2702.75–84D^77, aspartic replaces asparagine at position 77]
- inhibition of lysis by established CTL [1]: did not inhibit lysis

Substance: RENLRILLRY (listed as Homo sapiens) [B2702.75–84L^81, leucine replaces alanine at position 81]
- inhibition of lysis by established CTL [1]: inhibited lysis comparably to 02.75-84

- half-life [2]: 2 to 3 h
Substance: RESLRNLRGY [B7.75–84]

Substance: RVDLRTLRGY (listed as Homo sapiens) [RT1A.75–84, peptide corresponding to the same residues from a rat MHC class I molecule, reference compound]
- [CTL precursor frequency]^−1 ([3]; 0 days after peptide injection): 56,583
- [CTL precursor frequency]^−1 ([3]; 1 day after peptide injection): 54,631
- [CTL precursor frequency]^−1 ([3]; 7 days after peptide injection): 55,647
- [CTL precursor frequency]^−1 ([3]; 10 days after peptide injection): 56,583
- precursor frequency of Lew specific cells in splenocytes (1 in) ([3]; independent of the day on which the spleen was removed): ~55,000

Substance: WDRETQICKAKAQTDRENLRIALRY [B2702.60–84]
- potency relative to B2702.75-84, based on concentration required to achieve 50% inhibition of cytotoxicity [1]: approximately 5 fold
